Source: ChEMBL document CHEMBL3351541, “Synthesis and analysis of potential α1,3-fucosyltransferase inhibitors” (Bioorg Med Chem, 2014)
The source made the active and inactive calls. No cut-off for these calls is given here.

Legend:
[1] = biological target: T1, 4-galactosyl-N-acetylglucosaminide 3-alpha-L-fucosyltransferase 9 (Homo sapiens) (UniProt Q9Y231); assay: (§1) Inhibition of human recombinant alpha1,3-fucosyltransferase 9 using GDP-[14C]-fucose preincubated for 30 mins by liquid scintillation counting; design: concentration or dose not given beside the values
T1 sequence (whole entry): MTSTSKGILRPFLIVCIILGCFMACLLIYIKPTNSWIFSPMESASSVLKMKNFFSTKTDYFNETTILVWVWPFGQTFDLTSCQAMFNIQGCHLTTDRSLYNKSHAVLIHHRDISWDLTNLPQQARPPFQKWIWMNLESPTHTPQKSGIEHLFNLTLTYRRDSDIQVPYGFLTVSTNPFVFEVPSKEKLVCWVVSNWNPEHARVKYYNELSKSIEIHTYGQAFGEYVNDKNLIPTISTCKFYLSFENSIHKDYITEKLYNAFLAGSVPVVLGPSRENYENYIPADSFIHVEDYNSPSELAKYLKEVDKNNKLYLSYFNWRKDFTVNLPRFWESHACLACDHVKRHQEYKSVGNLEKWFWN

Helicobacter pylori [2] = assay: Inhibition of Helicobacter pylori recombinant alpha1,3-fucosyltransferase using GDP-[14C]-fucose preincubated for 30 mins by liquid scintillation counting
[3] = biological target: T2, 4-galactosyl-N-acetylglucosaminide 3-alpha-L-fucosyltransferase 9 (Homo sapiens, UniProt Q9Y231); assay: as §1
T2 sequence (Q9Y231 whole entry): T1 sequence (whole entry)

Helicobacter pylori [4] = assay: Inhibition of Helicobacter pylori recombinant alpha1,3-fucosyltransferase using GDP-[14C]-fucose assessed as remaining activity preincubated for 30 mins by liquid scintillation counting

With `Nc1nc2c(ncn2[C@@H]2O[C@H](COP(=O)(O)O)[C@@H](O)[C@H]2O)c(=O)[nH]1` the inhibition [1] was “inactive” and the inhibition (Helicobacter pylori [2]) was “Active”.

In the case of `Nc1ncnc2c1ncn2[C@@H]1O[C@H](COP(=O)(O)OP(=O)(O)O)[C@@H](O)[C@H]1O`, the inhibition [1] is reported as “inactive” and the inhibition (Helicobacter pylori [2]) is reported as “Active”.

Molecule `Nc1nc2c(ncn2[C@H]2C[C@H](O)[C@@H](CO[P@](=O)(O)OP(=O)(O)O)O2)c(=O)[nH]1` has an IC50 [3] of 49 µM, a Ki [3] of 50.3 µM and an inhibition [1] of less than 80%. For the same molecule, the Activity (Helicobacter pylori [4]) was 60%.

In the case of `C[C@@H]1O[C@H](n2cc(COP(=O)(O)OP(=O)(O)OC[C@H]3O[C@@H](n4cnc5c(=O)[nH]c(N)nc54)[C@H](O)[C@@H]3O)nn2)[C@@H](O)[C@H](O)[C@@H]1O`, the IC50 [3] is reported as 139 µM and the Ki [3] is reported as 137 µM.

`O=c1[nH]cnc2c1ncn2[C@@H]1O[C@H](COP(=O)(O)OP(=O)(O)O)[C@@H](O)[C@H]1O` gave an inhibition [1] of 30% and an inhibition (Helicobacter pylori [2]) of 65%.

In the case of `Nc1nc2c(ncn2[C@@H]2O[C@H](COP(=O)(O)OP(=O)(O)OP(=O)(O)O)[C@@H](O)[C@H]2O)c(=O)[nH]1` [GUANOSINE TRIPHOSPHATE], the IC50 [3] is reported as 94 µM, the Ki [3] is reported as 80.7 µM and the inhibition [1] is reported as less than 75%. For the same molecule, the inhibition (Helicobacter pylori [2]) was less than 75%.

For `CC(=O)Nc1nc2c(ncn2[C@@H]2O[C@H](COP(=O)(O)OP(=O)(O)OCc3cn([C@@H]4O[C@H](COC(C)=O)[C@H](OC(C)=O)[C@H](OC(C)=O)[C@H]4OC(C)=O)nn3)[C@@H](OC(C)=O)[C@H]2OC(C)=O)c(=O)[nH]1`, the inhibition [1] was “inactive” and the inhibition (Helicobacter pylori [2]) was 45%.

`NC[C@@H]1O[C@H](OP(=O)(O)OP(=O)(O)OC[C@H]2O[C@@H](n3cnc4c(=O)[nH]c(N)nc43)[C@H](O)[C@@H]2O)[C@@H](O)[C@H](O)[C@@H]1O` showed an IC50 [3] of 104 µM, a Ki [3] of 102 µM and an inhibition [1] of 78%.

In the case of `Nc1nc2c(ncn2[C@@H]2O[C@H](COP(=O)(O)OP(=O)(O)OCc3cn([C@@H]4O[C@H](CO)[C@@H](O[C@@H]5O[C@H](CO)[C@H](O)[C@H](O)[C@H]5O)[C@H](O)[C@H]4O)nn3)[C@@H](O)[C@H]2O)c(=O)[nH]1`, the inhibition [1] is reported as 45%.

For `C[C@@H](O)[C@H](O)[C@H](O)[C@@H](O)C=O`, the inhibition [1] was “inactive” and the inhibition (Helicobacter pylori [2]) was “Active”.

With `Nc1nc2c(ncn2[C@@H]2O[C@H](COP(=O)(O)OP(=O)(O)O)[C@@H](O)[C@H]2O)c(=O)[nH]1` the IC50 [3] was 59 µM, the Ki [3] was 77.9 µM and the inhibition (Helicobacter pylori [2]) was less than 75%.

`C[C@H]1O[C@@H](n2cc(COP(=O)(O)OP(=O)(O)OC[C@H]3O[C@@H](n4cnc5c(=O)[nH]c(N)nc54)[C@H](O)[C@@H]3O)nn2)[C@H](O)[C@@H](O)[C@H]1O` showed an IC50 [3] of 134 µM and a Ki [3] of 190 µM.

`Nc1nc2c(ncn2[C@@H]2O[C@H](COP(=O)(O)OP(=O)(O)OCc3cn([C@@H]4O[C@H](CO)[C@H](O)[C@H](O)[C@H]4O)nn3)[C@@H](O)[C@H]2O)c(=O)[nH]1` was tested, and the IC50 [3] was 247 µM and the Ki [3] was 186 µM.
